Test results: ChEMBL document CHEMBL2029240 (ACS Med Chem Lett, 2011)

How the values were obtained:
[1] = target: C-C chemokine receptor type 2 (Homo sapiens, UniProt P41597)
Description: Displacement of [125I]MCP1 from human CCR2 in PBMC after 30 mins by gamma counting

hERG (KCNH2) = hERG (KCNH2) (Homo sapiens, UniProt Q12809); test: Inhibition of human ERG at 10 uM by patch clamp assay
[2] = target: Voltage-gated inwardly rectifying potassium channel KCNH2 (Homo sapiens, UniProt Q12809); test: Displacement of [3H]dofetilide from human ERG
Chain of Voltage-gated inwardly rectifying potassium channel KCNH2 (Q12809 whole entry): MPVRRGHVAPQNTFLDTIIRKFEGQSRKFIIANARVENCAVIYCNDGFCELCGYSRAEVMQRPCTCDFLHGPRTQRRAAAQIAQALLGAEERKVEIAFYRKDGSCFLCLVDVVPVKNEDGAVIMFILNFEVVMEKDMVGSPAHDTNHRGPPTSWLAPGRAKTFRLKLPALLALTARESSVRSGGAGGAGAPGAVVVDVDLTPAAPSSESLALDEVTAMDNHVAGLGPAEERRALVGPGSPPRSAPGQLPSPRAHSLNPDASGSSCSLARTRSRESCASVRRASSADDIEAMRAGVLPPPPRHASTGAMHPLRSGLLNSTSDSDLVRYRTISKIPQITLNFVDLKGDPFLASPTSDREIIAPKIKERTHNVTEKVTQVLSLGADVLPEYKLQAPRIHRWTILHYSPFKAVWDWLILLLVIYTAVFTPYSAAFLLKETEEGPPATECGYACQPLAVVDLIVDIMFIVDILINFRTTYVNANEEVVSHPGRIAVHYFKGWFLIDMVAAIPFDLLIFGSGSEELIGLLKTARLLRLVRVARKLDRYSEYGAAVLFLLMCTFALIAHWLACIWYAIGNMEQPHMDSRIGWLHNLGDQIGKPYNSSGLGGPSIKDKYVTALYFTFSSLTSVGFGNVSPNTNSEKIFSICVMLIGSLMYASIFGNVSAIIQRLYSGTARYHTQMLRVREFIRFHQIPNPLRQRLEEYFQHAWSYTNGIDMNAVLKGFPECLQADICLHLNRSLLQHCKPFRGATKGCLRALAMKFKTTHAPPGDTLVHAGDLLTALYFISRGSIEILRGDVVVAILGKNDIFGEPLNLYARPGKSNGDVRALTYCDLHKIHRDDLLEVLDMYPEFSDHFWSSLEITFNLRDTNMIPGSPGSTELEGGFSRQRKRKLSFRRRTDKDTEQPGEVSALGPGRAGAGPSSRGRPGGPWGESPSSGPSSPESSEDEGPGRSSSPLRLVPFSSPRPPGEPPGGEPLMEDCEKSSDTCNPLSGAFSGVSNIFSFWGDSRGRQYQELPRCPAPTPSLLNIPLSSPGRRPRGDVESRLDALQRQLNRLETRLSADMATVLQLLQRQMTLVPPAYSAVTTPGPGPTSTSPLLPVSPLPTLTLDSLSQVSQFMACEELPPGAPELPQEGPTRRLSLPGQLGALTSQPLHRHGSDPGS

Chain of C-C chemokine receptor type 2 (P41597 whole entry): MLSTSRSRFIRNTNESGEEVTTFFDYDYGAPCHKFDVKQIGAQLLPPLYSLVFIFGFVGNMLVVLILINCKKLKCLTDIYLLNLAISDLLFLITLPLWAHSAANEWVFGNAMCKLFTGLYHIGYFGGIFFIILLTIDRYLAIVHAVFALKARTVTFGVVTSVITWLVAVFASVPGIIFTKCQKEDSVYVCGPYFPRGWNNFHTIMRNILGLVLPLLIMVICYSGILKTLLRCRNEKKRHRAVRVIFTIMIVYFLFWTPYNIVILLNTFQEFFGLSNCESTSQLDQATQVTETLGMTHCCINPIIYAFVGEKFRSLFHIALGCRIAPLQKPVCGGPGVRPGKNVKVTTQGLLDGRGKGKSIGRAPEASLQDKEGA
Chain of hERG (KCNH2) (Q12809 whole entry): as the sequence (Q12809 whole entry) above

SMILES	IC50 [1]	inhibition at 10 µM (hERG (KCNH2))	IC50 [2]
COc1ccc([C@]2(O)CC[C@H](N[C@H]3CCN(C(=O)CNC(=O)c4cccc(C(F)(F)F)c4)C3)CC2)cn1	95 nM		
O=C(NCC(=O)N1CC[C@H](N[C@H]2CC[C@@](O)(c3ccccn3)CC2)C1)c1cccc(C(F)(F)F)c1		34%	> 30000 nM
O=C(NCC(=O)N1CC[C@H](N[C@H]2CC[C@@](O)(c3nccs3)CC2)C1)c1cccc(C(F)(F)F)c1	18 nM		
Cc1ccc([C@]2(O)CC[C@H](N[C@H]3CCN(C(=O)CNC(=O)c4cccc(C(F)(F)F)c4)C3)CC2)nc1		71%	24000 nM
O=C(NCC(=O)N1CC[C@H](N[C@H]2CC[C@@](O)(c3ccc(-c4cccnc4)cn3)CC2)C1)c1cccc(C(F)(F)F)c1			30000 nM

Second part, led by results:

IC50 [1]	SMILES	inhibition at 10 µM (hERG (KCNH2))	IC50 [2]
860 nM	O=C(NCC(=O)N1CC[C@@H](N[C@H]2CC[C@@H](c3ccccc3)CC2)C1)c1cccc(C(F)(F)F)c1		
35 nM	O=C(NCC(=O)N1CC[C@H](N[C@H]2CC[C@@H](c3ccccc3)CC2)C1)c1cccc(C(F)(F)F)c1		
84 nM	CN([C@H]1CCN(C(=O)CNC(=O)c2cccc(C(F)(F)F)c2)C1)[C@H]1CC[C@@H](c2ccccc2)CC1		
65 nM	O=C(NCC(=O)N1CC[C@H](N[C@H]2CC[C@@](O)(c3ccccc3)CC2)C1)c1cccc(C(F)(F)F)c1		
